Experimental data taken from PubChem BioAssay AID2060896 (Molecular Pharmacology Branch, DTP, NCI, 2025).

Tested on: 941728-121-R-J1-PDC complex spheroid viability
Experiment: Anticancer human tumor 941728-121-R-J1-PDC patient-derived lung adenocarcinoma cell line growth inhibition [RAS]
Conditions: for IC50: curve of first compound; for viability, T/C: stronger effect = lower value
Summary of the method: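 Agents were tested in combination matrices in half-log decrements from a top concentration at or near clinical Cmax (10 microM if undetermined). Targets were multi-cell spheroids of tumour lines plus HUVEC and MSC stromal cells.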

[1] = second compound 0.000949 µM, first compound 0.0316 µM
[2] = second compound 0.000949 µM, first compound 0.1 µM
[3] = second compound 0.000949 µM, first compound 0.316 µM
[4] = second compound 0.000949 µM, first compound 1 µM
[5] = second compound 0.000949 µM, first compound 3.16 µM
[6] = second compound 0.000949 µM, first compound 10 µM
[7] = second compound 0.003 µM, first compound 0.0316 µM
[8] = second compound 0.003 µM, first compound 0.1 µM
[9] = second compound 0.003 µM, first compound 0.316 µM
[10] = second compound 0.003 µM, first compound 1 µM
[11] = second compound 0.003 µM, first compound 3.16 µM
[12] = second compound 0.003 µM, first compound 10 µM
[13] = second compound 0.00949 µM, first compound 0.0316 µM
[14] = second compound 0.00949 µM, first compound 0.1 µM
[15] = second compound 0.00949 µM, first compound 0.316 µM
[16] = second compound 0.00949 µM, first compound 1 µM
[17] = second compound 0.00949 µM, first compound 3.16 µM
[18] = second compound 0.00949 µM, first compound 10 µM
[19] = second compound 0.03 µM, first compound 0.0316 µM
[20] = second compound 0.03 µM, first compound 0.1 µM
[21] = second compound 0.03 µM, first compound 0.316 µM
[22] = second compound 0.03 µM, first compound 1 µM
[23] = second compound 0.03 µM, first compound 3.16 µM
[24] = second compound 0.03 µM, first compound 10 µM
[25] = second compound 0.0949 µM, first compound 0.0316 µM
[26] = second compound 0.0949 µM, first compound 0.1 µM
[27] = second compound 0.0949 µM, first compound 0.316 µM
[28] = second compound 0.0949 µM, first compound 1 µM
[29] = second compound 0.0949 µM, first compound 3.16 µM
[30] = second compound 0.0949 µM, first compound 10 µM
[31] = second compound 0.3 µM, first compound 0.0316 µM
[32] = second compound 0.3 µM, first compound 0.1 µM
[33] = second compound 0.3 µM, first compound 0.316 µM
[34] = second compound 0.3 µM, first compound 1 µM
[35] = second compound 0.3 µM, first compound 3.16 µM
[36] = second compound 0.3 µM, first compound 10 µM
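Note: spheroids exposed to compounds for 7 days before readout.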
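Throughout, for viability, T/C: 100% = DMSO vehicle control viability.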

Compound: Cc1nc(N2CCC3(CC2)COC(C)C3N)c(CO)nc1Sc1ccnc(N)c1Cl (stereo unspecified) + CCn1c(-c2cc(N3CCN(C)CC3)cnc2C(C)OC)c2c3cc(ccc31)-c1csc(n1)CC(NC(=O)C1CC1C)C(=O)N1CCCC(N1)C(=O)OCC(C)(C)C2
- IC50 (second compound 0.000949 µM): < 31.6 nM
- IC50 (second compound 0.003 µM): < 31.6 nM
- IC50 (second compound 0.00949 µM): < 31.6 nM
- IC50 (second compound 0.03 µM): < 31.6 nM
- IC50 (second compound 0.0949 µM): < 31.6 nM
- IC50 (second compound 0.3 µM): < 31.6 nM
- viability, T/C [1]: 25.1%
- viability, T/C [2]: 21%
- viability, T/C [3]: 14.6%
- viability, T/C [4]: 19.2%
- viability, T/C [5]: 18.7%
- viability, T/C [6]: 12.9%
- viability, T/C [7]: 19.2%
- viability, T/C [8]: 17.7%
- viability, T/C [9]: 13.3%
- viability, T/C [10]: 13.4%
- viability, T/C [11]: 13.6%
- viability, T/C [12]: 9.72%
- viability, T/C [13]: 14.6%
- viability, T/C [14]: 12%
- viability, T/C [15]: 12.8%
- viability, T/C [16]: 13.6%
- viability, T/C [17]: 11.9%
- viability, T/C [18]: 11%
- viability, T/C [19]: 11.9%
- viability, T/C [20]: 15.5%
- viability, T/C [21]: 13.9%
- viability, T/C [22]: 13.2%
- viability, T/C [23]: 9.2%
- viability, T/C [24]: 13.5%
- viability, T/C [25]: 13.3%
- viability, T/C [26]: 14.4%
- viability, T/C [27]: 12.8%
- viability, T/C [28]: 14.3%
- viability, T/C [29]: 9.5%
- viability, T/C [30]: 11.1%
- viability, T/C [31]: 13.1%
- viability, T/C [32]: 12.8%
- viability, T/C [33]: 12.6%
- viability, T/C [34]: 11.2%
- viability, T/C [35]: 12%
- viability, T/C [36]: 13.1%

Compound: NC1c2ccccc2OC12CCN(c1cnc3c(N4CCCc5ncccc54)n[nH]c3n1)CC2 (stereo unspecified) + CCn1c(-c2cc(N3CCN(C)CC3)cnc2C(C)OC)c2c3cc(ccc31)-c1csc(n1)CC(NC(=O)C1CC1C)C(=O)N1CCCC(N1)C(=O)OCC(C)(C)C2
- IC50 (second compound 0.000949 µM): < 31.6 nM
- IC50 (second compound 0.003 µM): < 31.6 nM
- IC50 (second compound 0.00949 µM): < 31.6 nM
- IC50 (second compound 0.03 µM): < 31.6 nM
- IC50 (second compound 0.0949 µM): < 31.6 nM
- IC50 (second compound 0.3 µM): < 31.6 nM
- viability, T/C [1]: 22%
- viability, T/C [2]: 17.4%
- viability, T/C [3]: 13.4%
- viability, T/C [4]: 16.5%
- viability, T/C [5]: 16.6%
- viability, T/C [6]: 12%
- viability, T/C [7]: 15.2%
- viability, T/C [8]: 12.4%
- viability, T/C [9]: 10.6%
- viability, T/C [10]: 14%
- viability, T/C [11]: 13.8%
- viability, T/C [12]: 10.3%
- viability, T/C [13]: 13.7%
- viability, T/C [14]: 10.5%
- viability, T/C [15]: 12.5%
- viability, T/C [16]: 10.8%
- viability, T/C [17]: 9.25%
- viability, T/C [18]: 9.84%
- viability, T/C [19]: 11.9%
- viability, T/C [20]: 12.4%
- viability, T/C [21]: 12.1%
- viability, T/C [22]: 11.1%
- viability, T/C [23]: 11.3%
- viability, T/C [24]: 15.1%
- viability, T/C [25]: 11.4%
- viability, T/C [26]: 13.5%
- viability, T/C [27]: 12.8%
- viability, T/C [28]: 12.2%
- viability, T/C [29]: 10.5%
- viability, T/C [30]: 15.2%
- viability, T/C [31]: 11.6%
- viability, T/C [32]: 12.1%
- viability, T/C [33]: 10.4%
- viability, T/C [34]: 10.9%
- viability, T/C [35]: 10.4%
- viability, T/C [36]: 15.5%

Compound: Nc1ccn(C2OC(CO)C(O)C2(F)F)c(=O)n1 (stereo unspecified) + CCn1c(-c2cc(N3CCN(C)CC3)cnc2C(C)OC)c2c3cc(ccc31)-c1csc(n1)CC(NC(=O)C1CC1C)C(=O)N1CCCC(N1)C(=O)OCC(C)(C)C2
- IC50 (second compound 0.000949 µM): < 3.16 nM
- IC50 (second compound 0.003 µM): < 3.16 nM
- IC50 (second compound 0.00949 µM): < 3.16 nM
- IC50 (second compound 0.03 µM): < 3.16 nM
- IC50 (second compound 0.0949 µM): < 3.16 nM
- IC50 (second compound 0.3 µM): < 3.16 nM
- viability, T/C (second compound 0.000949 µM, first compound 0.00316 µM): 25.2%
- viability, T/C (second compound 0.000949 µM, first compound 0.01 µM): 25.2%
- viability, T/C [1]: 16.8%
- viability, T/C [2]: 21.1%
- viability, T/C [3]: 21%
- viability, T/C [4]: 17.1%
- viability, T/C (second compound 0.003 µM, first compound 0.00316 µM): 18.2%
- viability, T/C (second compound 0.003 µM, first compound 0.01 µM): 16.7%
- viability, T/C [7]: 13.1%
- viability, T/C [8]: 15.3%
- viability, T/C [9]: 16.6%
- viability, T/C [10]: 12.2%
- viability, T/C (second compound 0.00949 µM, first compound 0.00316 µM): 13.2%
- viability, T/C (second compound 0.00949 µM, first compound 0.01 µM): 11.3%
- viability, T/C [13]: 12.9%
- viability, T/C [14]: 12.9%
- viability, T/C [15]: 12.4%
- viability, T/C [16]: 10.5%
- viability, T/C (second compound 0.03 µM, first compound 0.00316 µM): 12.4%
- viability, T/C (second compound 0.03 µM, first compound 0.01 µM): 11.8%
- viability, T/C [19]: 10.8%
- viability, T/C [20]: 10.7%
- viability, T/C [21]: 10.8%
- viability, T/C [22]: 10.1%
- viability, T/C (second compound 0.0949 µM, first compound 0.00316 µM): 13.3%
- viability, T/C (second compound 0.0949 µM, first compound 0.01 µM): 10.6%
- viability, T/C [25]: 12.8%
- viability, T/C [26]: 11%
- viability, T/C [27]: 9.57%
- viability, T/C [28]: 11%
- viability, T/C (second compound 0.3 µM, first compound 0.00316 µM): 10.7%
- viability, T/C (second compound 0.3 µM, first compound 0.01 µM): 10.2%
- viability, T/C [31]: 11%
- viability, T/C [32]: 10.4%
- viability, T/C [33]: 10.2%
- viability, T/C [34]: 11.7%
